Measurements published in US20250084079A1, “COMPOSITIONS AND METHODS FOR INHIBITION OF RAS” (TheRas, Inc., priority 2022, published 2025).
Read-outs that look alike come from different tables or passages of the source.

Key:
[1] = biological target: T1, Avi-KRAS G12V (1-169) GppNHp/RAF1 RBD-3xFLAG (52-151) (Homo sapiens, UniProt P01116, G12V); test: RAS-effector PPI HTRF disruption assay, Raf1-GppNHp-KRAS G12V; assay type: biochemical
T1 construct: 50 nM Avi-KRAS G12V (1-169) GppNHp
In short: (§1)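 Protein complexes pre-mixed in buffer (50 mM Tris pH 7.5, 100 mM NaCl, 5 mM MgCl2, 0.1% BSA, 0.01% Tween, 1 mM TCEP, 10% DMSO): KRAS G12D/Q25A–PI3KCA at 375 nM; KRAS G12D–RAF1 RBD at 100 nM; KRAS G12V and WT–RAF1 RBD at 50 nM. Compounds titrated from 100 μM, 10 points, 3×. IC50 from HTRF signal relative to DMSO.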

[2] = biological target: T2, Avi-KRAS G12D (1-169) GppNHp/RAF1 RBD-3xFLAG (52-151) (Homo sapiens, UniProt P01116, G12D); test: RAS-effector PPI HTRF disruption assay, Raf1-GppNHp-KRAS G12D; assay type: biochemical
T2 construct: 100 nM Avi-KRAS G12D (1-169) GppNHp
In short: as §1

GDP KRAS G12D = GDP KRAS G12D (Homo sapiens, UniProt P01116, G12D); test: SPR binding affinity to GDP KRAS G12D (Biacore S200); conditions: GDP-loaded KRAS G12D, steady state KD
Method: (§2) The affinity of compounds of the present disclosure to RAS ligands was assessed using surface plasmon resonance (SPR) binding analysis using a Biacore S200 (GE Healthcare Life Sciences) instrument. The SPR binding analysis employed the following reagents and protocols:
(§3) Buffer preparation: To make 0.5 L add required amounts of stocks for: 20 mM Hepes, 150 mM NaCl, 5 mM MgCl2, 1 mM TCEP, 0.05% P20, and 5 μM nucleotide. Adjust pH to 7.4, then bring volume up to 475 mL 1.05×Filter through 0.2 μm cellulose acetate membrane. Remove a volume of buffer as No DMSO Buffer 1.05× and set aside. Add appropriate volume of DMSO to buffer to a final concentration 5% DMSO.
(§4) Chip preparation: Prime 2× with 5% DMSO buffer. Allow system to flow on standby throughout the day.
(§5) Sample preparation: Make a 20× compound solution in 100% DMSO of highest compound concentration to be screened (2 mM for final 100 μM compound). Add appropriate volume of 1.05× buffer without DMSO to give 5% DMSO and mix by pipetting. Centrifuge sample 18,000×g 5 min 25° C. Make appropriate serial dilutions from the highest concentration into 5% DMSO running buffer for the concentrations needed. Prepare 5.8% DMSO and 4.5% DMSO solvent correction solutions using buffer without DMSO. Make two more solvent corrections by mixing 200 μL 4.5% 500 μL 5.8%, and 400 μL 4.5% 300 μL 5.8%
(§6) Capture Avi-taggedprotein: Thaw protein stock on ice, aliquot into single use size and freeze at −80° C. for future use. Dilute protein (avi-KRAS WT, avi-KRAS-G12D, avi-KRAS-G12V, or avi-RhoA) appropriately, to 20 μg/mL to begin in 5% DMSO buffer. Manually inject at 10 μL/min 12 second contact time. Adjust flow and or contact time to achieve desired level of captured protein. When desired level of protein is captured, flow for 10 minutes to stabilize signal.
(§7) General Binding Level Screen Method: Choose LMW screen template in Fragment/LMW subfolder in Binding screen folder. 30 μL/min high performance injection, 60 sec contact and dissociation time, carry over control, extra wash with 50% DMSO for each injection. Fifteen Startup cycles to condition. Control samples before and after compound samples. For GppNHp loaded KRAS, control is 20 μM Raf1 RBD domain. Adjust this sample to final 5% DMSO to match running buffer. This process is performed at a temperature of 25° C. using a single chip per experiment.
(§8) Binding affinity determination: Compounds selected from the binding level screen are evaluated in a dose response to determine the binding affinity (KD). Serial dilutions of compounds are prepared and injected over the sensor chip using a flow rate of 30 μL/min with a 60 second contact and dissociation time. After double referencing of the sensorgrams the total level of compound binding at each concentration is calculated. The steady state binding affinity is calculated with a Langmuir binding model assuming a 1:1 interaction with a constrained Rmax using the BIAevaluation software.

GppNHp KRAS G12D = GppNHp KRAS G12D (Homo sapiens, UniProt P01116, G12D); test: SPR binding affinity to GppNHp KRAS G12D (Biacore S200); conditions: GppNHp-loaded KRAS G12D, steady state KD
Method: as §2, §3, §4, §5, §6, §7, §8

[3] = test system: pERK in GP2d cells (KRAS G12D); test: Cell-based pERK HTRF assay in GP2d cell; conditions: 60 min incubation
In short: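 GP2d cells (KRAS G12D) in DMEM/10% FBS were seeded the day before and exposed to compounds for 60 min in 0.25% DMSO. The 9-point curve started at 1 μM with half-log steps. Lysates were read for pERK by HTRF (Eu cryptate/d2 antibodies) after 4–24 h at room temperature, with excitation at 320 nm and emission at 615 nm.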

[4] = biological target: T3, Avi-KRAS G12D/Q25A (1-169) GppNHp/3xFLAG-PI3KCA (157-299) (Homo sapiens, UniProt P01116, G12D/Q25A); test: RAS-effector PPI HTRF disruption assay, PI3KCA-GppNHp-KRAS G12D/Q25A; assay type: biochemical
T3 construct: 375 nM Avi-KRAS G12D/Q25A (1-169) GppNHp
In short: as §1

[5] = biological target: T4, Avi-KRAS WT (1-169) GppNHp/RAF1 RBD-3xFLAG (52-151) (Homo sapiens, UniProt P01116); test: RAS-effector PPI HTRF disruption assay, Raf1-GppNHp-KRAS WT; assay type: biochemical
T4 construct: 50 nM Avi-KRAS WT (1-169) GppNHp
In short: as §1

T4 sequence (P01116 1-169 isoform P01116-2): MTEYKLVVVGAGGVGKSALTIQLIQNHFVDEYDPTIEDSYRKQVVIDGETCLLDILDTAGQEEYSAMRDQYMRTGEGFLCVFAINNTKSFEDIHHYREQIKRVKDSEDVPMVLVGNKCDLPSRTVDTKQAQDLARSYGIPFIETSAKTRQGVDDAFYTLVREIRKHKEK
T2 sequence (P01116 1-169 isoform P01116-2 G12D): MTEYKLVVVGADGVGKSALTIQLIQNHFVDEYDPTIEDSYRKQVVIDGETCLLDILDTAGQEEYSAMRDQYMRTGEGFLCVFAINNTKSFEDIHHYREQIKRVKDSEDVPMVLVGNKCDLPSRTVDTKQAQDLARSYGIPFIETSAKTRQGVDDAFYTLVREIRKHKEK
Chain of GppNHp KRAS G12D (P01116 1-188 isoform P01116-2 G12D): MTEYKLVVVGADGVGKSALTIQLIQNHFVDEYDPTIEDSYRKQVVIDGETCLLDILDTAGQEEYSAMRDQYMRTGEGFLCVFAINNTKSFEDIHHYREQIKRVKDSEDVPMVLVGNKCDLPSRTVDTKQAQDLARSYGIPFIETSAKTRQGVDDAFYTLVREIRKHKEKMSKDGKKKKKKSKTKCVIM
Chain of GDP KRAS G12D (P01116 1-188 isoform P01116-2 G12D): as above
T3 sequence (P01116 1-169 isoform P01116-2 G12D/Q25A): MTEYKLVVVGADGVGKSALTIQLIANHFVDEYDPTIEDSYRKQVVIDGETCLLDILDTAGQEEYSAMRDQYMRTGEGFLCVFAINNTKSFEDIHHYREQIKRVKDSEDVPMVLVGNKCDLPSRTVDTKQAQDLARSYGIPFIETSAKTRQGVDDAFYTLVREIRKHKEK
T1 sequence (P01116 1-169 isoform P01116-2 G12V): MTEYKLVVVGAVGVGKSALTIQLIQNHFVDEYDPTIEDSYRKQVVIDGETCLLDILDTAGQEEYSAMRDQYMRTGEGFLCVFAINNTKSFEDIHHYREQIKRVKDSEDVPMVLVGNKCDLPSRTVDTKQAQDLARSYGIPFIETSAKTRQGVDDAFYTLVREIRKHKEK

Row | SMILES | IC50 [1] [nM] | IC50 [2] [nM] | Kd (GDP KRAS G12D) [nM] | Kd (GppNHp KRAS G12D) [nM] | IC50 ([3]; GP2d, 1 h) [nM] | IC50 [4] [nM] | IC50 [5] [nM] | IC50 ([3]; read-out: pERK-Gp2D-1 hr) [nM]
1 | C[C@H]1NCC[C@@H]1Oc1nc(OC[C@@]23CCCN2C[C@H](F)C3)nc2c(F)c(-c3ccc(F)c4sc(N)c(C#N)c34)c(Cl)cc12 [Compound 59] | 100 to 1000 | 100 to 1000 | – | – | ≤ 100 | 100 to 1000 | 100 to 1000 | –
2 | N#Cc1c(N)sc2c(F)ccc(-c3c(Cl)cc4c(O[C@@H]5CNC[C@@H]5F)nc(OC[C@@]56CCCN5C[C@H](F)C6)nc4c3F)c12 [Compound 63] | 1000 to 10000 | 100 to 1000 | – | – | 100 to 1000 | 1000 to 10000 | 1000 to 10000 | –
3 | C[C@@H]1NCC[C@@H]1Oc1nc(OC[C@@]23CCCN2C[C@H](F)C3)nc2c(F)c(-c3ccc(F)c4sc(N)c(C#N)c34)c(Cl)cc12 [Compound 65] | 100 to 1000 | 100 to 1000 | – | – | ≤ 100 | 100 to 1000 | 100 to 1000 | –
4 | N#Cc1c(N)sc2c(F)ccc(-c3ccc4c(O[C@H]5CNC[C@H]5F)nc(OC[C@@]56CCCN5C[C@H](F)C6)nc4c3F)c12 [Compound 66] | > 10000 | 1000 to 10000 | – | – | 100 to 1000 | 1000 to 10000 | 1000 to 10000 | –
5 | N#Cc1c(N)sc2c(F)ccc(-c3c(C(F)(F)F)cc4c(O[C@@H]5CCNC5)nc(N5CC(N6CC7(CC7)C6)C5)nc4c3F)c12 [Compound 67] | 1000 to 10000 | 100 to 1000 | – | – | 100 to 1000 | > 10000 | 100 to 1000 | –
6 | N#Cc1c(N)sc2c(F)ccc(-c3c(Cl)cc4c(O[C@@H]5CN[C@H](CO)C5)nc(OC[C@@]56CCCN5C[C@H](F)C6)nc4c3F)c12 [Compound 70] | 100 to 1000 | ≤ 100 | – | – | 100 to 1000 | 100 to 1000 | 100 to 1000 | –
7 | N#Cc1c(N)sc2c(F)ccc(-c3ccc4c(O[C@H]5CNC[C@@H]5F)nc(OC[C@@]56CCCN5C[C@H](F)C6)nc4c3F)c12 [Compound 71] | > 10000 | 1000 to 10000 | – | – | > 1000 | 1000 to 10000 | 1000 to 10000 | –
8 | N#Cc1c(N)sc2c(F)ccc(-c3c(F)cc4c(O[C@@H]5CCNC5)nc(OC[C@@]56CCCN5C[C@H](F)C6)nc4c3F)c12 [Compound 77] | > 10000 | > 10000 | – | – | > 1000 | > 10000 | > 10000 | –
9 | N#Cc1c(N)sc2c(F)ccc(-c3ncc4c(O[C@@H]5CCNC5)nc(OC[C@@]56CCCN5C[C@H](F)C6)nc4c3F)c12 [Compound 97] | > 10000 | 1000 to 10000 | – | – | 100 to 1000 | > 10000 | 1000 to 10000 | –
10 | C[C@H]1NCC[C@H]1Oc1nc(OC[C@@]23CCCN2C[C@H](F)C3)nc2c(F)c(-c3ccc(F)c4sc(N)c(C#N)c34)ncc12 [Compound 98, 2-amino-7-fluoro-4-(8-fluoro-2-(((2R,7aS)-2-fluorotetrahydro-1H-pyrrolizin-7a(5H)-yl)methoxy)-4-(((2R,3R)-2-methylpyrrolidin-3-yl)oxy)pyrido[4,3-d]pyrimidin-7-yl)benzo[b]thiophene-3-carbonitrile] | 1000 to 10000 | 1000 to 10000 | – | – | 100 to 1000 | > 10000 | 1000 to 10000 | –

The next lines start with the values.

Row | IC50 [1] [nM] | IC50 [2] [nM] | Kd (GDP KRAS G12D) [nM] | Kd (GppNHp KRAS G12D) [nM] | IC50 ([3]; GP2d, 1 h) [nM] | IC50 [4] [nM] | IC50 [5] [nM] | IC50 ([3]; read-out: pERK-Gp2D-1 hr) [nM] | SMILES
11 | 1000 to 10000 | 100 to 1000 | ≤ 100 | 100 to 1000 | 100 to 1000 | 100 to 1000 | 1000 to 10000 | – | Nc1nc2c(-c3c(C(F)(F)F)cc4c(O[C@H]5CNC[C@@H]5F)nc(OC[C@@]56CCCN5C[C@H](F)C6)nc4c3F)ccc(F)c2s1 (atropisomer, axis not shown) [Compound 17]
12 | > 10000 | > 10000 | 100 to 1000 | > 10000 | – | > 10000 | > 10000 | – | Nc1nc2c(-c3c(C(F)(F)F)cc4c(O[C@H]5CNC[C@@H]5F)nc(OC[C@@]56CCCN5C[C@H](F)C6)nc4c3F)ccc(F)c2s1 (atropisomer, axis not shown) [Compound 18]
13 | > 10000 | > 10000 | 1000 to 10000 | > 10000 | – | > 10000 | > 10000 | – | C[C@@H]1C[C@@H](Oc2nc(OC[C@@]34CCCN3C[C@H](F)C4)nc3c(F)c(-c4ccc(F)c5sc(N)nc45)c(C(F)(F)F)cc23)CN1 (atropisomer, axis not shown) [Compound 21]
14 | > 10000 | 100 to 1000 | – | 1000 to 10000 | ≤ 100 | 1000 to 10000 | 1000 to 10000 | – | C[C@H]1C[C@@H](Oc2nc(OC[C@@]34CCCN3C[C@H](F)C4)nc3c(F)c(-c4ccc(F)c5sc(N)nc45)c(C(F)(F)F)cc23)CN1 [Compound 7]
15 | 1000 to 10000 | 100 to 1000 | – | – | – | 100 to 1000 | 100 to 1000 | 100 to 1000 | C[C@H]1C[C@H](Oc2nc(OC[C@@]34CCCN3C[C@H](F)C4)nc3c(F)c(-c4ccc(F)c5sc(N)c(C#N)c45)c(Cl)cc23)CN1 [Compound 54]
16 | > 10000 | 1000 to 10000 | – | – | – | 1000 to 10000 | 1000 to 10000 | > 1000 | C[C@H]1C[C@H](Oc2nc(OC[C@@]34CCCN3C[C@H](F)C4)nc3c(F)c(-c4ccc(F)c5sc(N)c(C#N)c45)c(Cl)cc23)CN1 [Compound 55]
17 | > 10000 | 1000 to 10000 | – | – | 100 to 1000 | 100 to 1000 | 1000 to 10000 | – | C[C@@H]1C[C@@H](Oc2nc(OC[C@@]34CCCN3C[C@H](F)C4)nc3c(F)c(-c4ccc(F)c5sc(N)c(C#N)c45)ccc23)CN1 [Compound 56]
18 | > 10000 | 1000 to 10000 | – | – | 100 to 1000 | 100 to 1000 | 1000 to 10000 | – | Nc1nc2c(-c3c(C(F)(F)F)cc4c(O[C@H]5CN[C@@H](CO)C5)nc(OCC56CCCN5C[C@H](F)C6)nc4c3F)ccc(F)c2s1 (stereo partly drawn) [Compound 58]
19 | 1000 to 10000 | 100 to 1000 | – | – | ≤ 100 | 1000 to 10000 | 100 to 1000 | – | N#Cc1c(N)sc2c(F)ccc(-c3c(C(F)(F)F)cc4c(O[C@@H]5CCN[C@@H]5CF)nc(OC[C@@]56CCCN5C[C@H](F)C6)nc4c3F)c12 [Compound 62]
20 | 100 to 1000 | ≤ 100 | – | – | ≤ 100 | 100 to 1000 | ≤ 100 | – | C[C@H]1NCC[C@@H]1Oc1nc(OC[C@@]23CCCN2C[C@H](Cl)C3)nc2c(F)c(-c3ccc(F)c4sc(N)c(C#N)c34)c(C(F)(F)F)cc12 [Compound 72]
